Experimental data reported in patent publication US20130072495A1, “FUSED BICYCLIC KINASE INHIBITORS” (OSI Pharmaceuticals, LLC, priority 2010, published 2013).

Columns and labels:
Assay type in all cases: cell-based
[1] = target: T1, MET (Homo sapiens, UniProt P08581); assay: MET cell mechanistic assay (MKN45), phosphorylated MET levels; settings: MKN45 cell line, four hours incubation, at least duplicate experiments, read-out: MET mech IC50
T1 construct: endogenous in cells; host or cells: MKN45
Method: The cellular activity of the compounds of the present invention against MET may be determined by the following procedure. MKN45 cells were plated in Falcon 3072 96-well plates in growth media (RPMI, 10% FBS, 1% L-glutamine) at a density of 5000 cells/well and incubated at 37° C., 5% CO2 overnight. The following day, one-tenth volume of a 10× concentration of compounds was added to the wells in a 6-point dilution series. The dilutions series was composed of an initial […] in DMSO, followed by a […] in growth media, for a final DMSO concentration on cells of 0.5%. Control wells were treated with 0.5% DMSO. The typical range of dilution was 10 μM to 3 nM. Once compound was added to the cells, plates were incubated for four hours at 37° C., 5% CO2. Plates were then washed in PBS, and lysed in triton-based lysis buffer. Lysates were transferred to a precoated capture plate made by Biosource (Cat # KHO0281). The phosphorylated MET levels were measured by incubating with a rabbit polyclonal antibody against phosphorylated MET ([pYpYpY1230/1234/1235]) followed by an anti-rabbit antibody conjugated to HRP. Signal was measured on a Wallac Victor plate reader at 450 nm. The DMSO signal of the control wells was defined as 100% and the percent of inhibition of phosphorylated MET was expressed as percent of control. IC50 values were determined from the percent of control data using a standard four-parameter model.
(§1) The IC50 values of exemplary compounds of the present invention determined in a MET cell mechanistic assay using the MKN45 cell line according to the procedures described herein in at least duplicate experiments are abbreviated as follows and are shown in Table 2: A, IC50≦0.1 μM; B, 0.1 μM<IC50≦0.5 μM; C, 0.5 μM<IC50≦2 μM; D, IC50>2 μM; ND, not determined. The Example # of Table 2 corresponds to the compound example number as illustrated in the Experimental section above.

[2] = test system: MKN45 cells; assay: MKN45 cell proliferation assay (CellTiter-Glo); settings: Homo sapiens, MKN-45, 72 h; MKN45 cell line, 3 days incubation, at least duplicate experiments; read-out: Prolif. IC50
Method: The effect of inhibitors on the proliferation of MKN45 cells was determined using the following protocol. MKN45 cells were plated in Corning 3917 96-well white tissue culture treated plates in growth medium (RPMI, 10% FCS) at a density of 5000 cells/well in a total volume of 135 μL and incubated at 37° C., 5% CO2, 95% humidity overnight. The following day, one-tenth volume of a 10× concentration of compounds was added to the wells in an 8-point dilution series. The dilution series was composed of an initial 1:5 dilution of a 10 mM stock of compound in DMSO, followed by serial 1:4 dilutions in DMSO, then a 1:20 dilution in growth medium prior to the 1:10 dilution into the cell plate. Final DMSO concentration on the cells was 0.1%, there were control wells treated with both 0.1% DMSO and no DMSO. The typical dilution range is 10 μM to 0.6 nM. Once the compound was added to the cells, plates were incubated for 3 days at 37° C., 5% CO2 at 95% humidity. On the third day, after allowing all cells and reagents to come to room temperature, 25 μL of CellTiter-Glo reagent (Promega # G7573) was added to the wells. Plates were shaken on a platform for 10 minutes prior to reading luminescence for 0.1 seconds. The signal of the control wells was taken as 100% growth and growth inhibition was expressed as percent of control. IC50 values were determined from the percent of control data using a standard four-parameter model.
as §1, with “a” for “a MET”, “cell proliferation” for “cell mechanistic”, “Table 1:” for “Table 2:”, “Table 1” for “Table 2”
Treatment of this cell line with a selective MET inhibitor led to induction of apoptosis and inhibition of proliferation, whereas non-MET-amplified cell lines were not affected. Smolen et al., Proc. Natl. Acad. Sci. USA, 103(7):2316-2321 (2006). This cell line is thus “driven” by MET, and antiproliferative effects correlate very well with the inhibition of MET phosphorylation so that the cell proliferation IC50 values can be used as surrogate for the MET cell mechanistic IC50 values. Under the assay conditions described herein, the IC50 values correlate nearly 1:1.

[3] = target: T2, sfRON (Homo sapiens, UniProt Q04912); assay: sfRON cell mechanistic assay (HeLa), phosphorylated RON levels; settings: sfRON transfected HeLa cells, four hours incubation, at least duplicate experiments, read-out: sfRON mech IC50
T2 construct: expressed in transfected cells; host or cells: HeLa (transient transfection, Lipofectamine-2000, sfRON-pcDNA plasmid)
T2 sequence (Q04912 913-1400 limits assumed): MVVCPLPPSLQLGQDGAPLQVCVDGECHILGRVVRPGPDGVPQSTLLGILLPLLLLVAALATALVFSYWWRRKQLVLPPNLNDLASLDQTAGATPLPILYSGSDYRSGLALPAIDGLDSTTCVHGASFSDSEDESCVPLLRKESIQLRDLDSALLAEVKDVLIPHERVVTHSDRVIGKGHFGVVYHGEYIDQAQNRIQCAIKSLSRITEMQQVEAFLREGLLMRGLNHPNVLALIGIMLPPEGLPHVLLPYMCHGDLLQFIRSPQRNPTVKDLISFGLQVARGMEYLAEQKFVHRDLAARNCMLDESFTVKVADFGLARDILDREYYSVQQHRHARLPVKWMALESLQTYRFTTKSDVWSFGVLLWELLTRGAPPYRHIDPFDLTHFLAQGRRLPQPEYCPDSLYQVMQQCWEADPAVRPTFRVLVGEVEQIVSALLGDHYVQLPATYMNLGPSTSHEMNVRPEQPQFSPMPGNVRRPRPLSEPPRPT
Method: The cellular activity of the compounds of the present invention against RON may be determined by the following procedure. HeLa cells were plated in Falcon 3072 96-well plates in growth media (DMEM, 10% FBS, 1% L-glutamine) at a density of 10000 cells/well and incubated at 37° C., 5% CO2 overnight. The following day, cells were transfected with 0.2 μg sfRON-pcDNA plasmid DNA with 0.5 μL Lipofectamine-2000 per well in the presence of 50 μL OPTI-MEM, incubated at 37° C., 5% CO2 overnight. Costar 3915 96-well assay plates were coated with rabbit Anti-RON antibody at 2.0 μg/mL, sealed, and incubated overnight at 4° C. On the third day, coated plates were washed with PBS and blocked with 3% BSA. For the sfRON transfected cells, one-tenth volume of a 10× concentration of compounds was added to the wells in a 6-point dilution series. The dilution series was composed of an initial 1:5 dilution of a 10 mM DMSO stock solution of compound in DMSO, followed by a 1:10 dilution in growth media, for a final DMSO concentration on cells of 0.5%. Control wells were treated with 0.5% DMSO. The typical range of dilution was 10 μM to 3 nM. Once compound was added to the cells, plates were incubated for four hours at 37° C., 5% CO2. Plates were then washed in PBS, and lysed in triton-based lysis buffer. Lysates were transferred to the blocked capture plates. The phosphorylated RON levels were measured by incubating with a Goat polyclonal antibody against phosphorylated RON ([pYpY1238/1239]) followed by an anti-Goat antibody conjugated to HRP. Signal was measured on a Wallac Victor plate reader with luminance. The DMSO signal of the control wells was defined as 100% and the percent of inhibition of phosphorylated RON was expressed as percent of control. IC50 values were determined from the percent of control data using a standard four-parameter model.
The IC50 values of exemplary compounds of the present invention determined in a sfRON cell mechanistic assay using the HeLa cell line according to the procedures described herein in at least duplicate experiments are abbreviated as follows and are shown in Table 3: A, IC50≦0.1 μM; B, 0.1 μM<IC50≦0.5 μM; C, 0.5 μM<IC50≦1 μM; D, IC50>1 μM; ND, not determined. The Example # of Table 3 corresponds to the compound example number as illustrated in the Examples section.

T1 sequence (P08581 25-1390): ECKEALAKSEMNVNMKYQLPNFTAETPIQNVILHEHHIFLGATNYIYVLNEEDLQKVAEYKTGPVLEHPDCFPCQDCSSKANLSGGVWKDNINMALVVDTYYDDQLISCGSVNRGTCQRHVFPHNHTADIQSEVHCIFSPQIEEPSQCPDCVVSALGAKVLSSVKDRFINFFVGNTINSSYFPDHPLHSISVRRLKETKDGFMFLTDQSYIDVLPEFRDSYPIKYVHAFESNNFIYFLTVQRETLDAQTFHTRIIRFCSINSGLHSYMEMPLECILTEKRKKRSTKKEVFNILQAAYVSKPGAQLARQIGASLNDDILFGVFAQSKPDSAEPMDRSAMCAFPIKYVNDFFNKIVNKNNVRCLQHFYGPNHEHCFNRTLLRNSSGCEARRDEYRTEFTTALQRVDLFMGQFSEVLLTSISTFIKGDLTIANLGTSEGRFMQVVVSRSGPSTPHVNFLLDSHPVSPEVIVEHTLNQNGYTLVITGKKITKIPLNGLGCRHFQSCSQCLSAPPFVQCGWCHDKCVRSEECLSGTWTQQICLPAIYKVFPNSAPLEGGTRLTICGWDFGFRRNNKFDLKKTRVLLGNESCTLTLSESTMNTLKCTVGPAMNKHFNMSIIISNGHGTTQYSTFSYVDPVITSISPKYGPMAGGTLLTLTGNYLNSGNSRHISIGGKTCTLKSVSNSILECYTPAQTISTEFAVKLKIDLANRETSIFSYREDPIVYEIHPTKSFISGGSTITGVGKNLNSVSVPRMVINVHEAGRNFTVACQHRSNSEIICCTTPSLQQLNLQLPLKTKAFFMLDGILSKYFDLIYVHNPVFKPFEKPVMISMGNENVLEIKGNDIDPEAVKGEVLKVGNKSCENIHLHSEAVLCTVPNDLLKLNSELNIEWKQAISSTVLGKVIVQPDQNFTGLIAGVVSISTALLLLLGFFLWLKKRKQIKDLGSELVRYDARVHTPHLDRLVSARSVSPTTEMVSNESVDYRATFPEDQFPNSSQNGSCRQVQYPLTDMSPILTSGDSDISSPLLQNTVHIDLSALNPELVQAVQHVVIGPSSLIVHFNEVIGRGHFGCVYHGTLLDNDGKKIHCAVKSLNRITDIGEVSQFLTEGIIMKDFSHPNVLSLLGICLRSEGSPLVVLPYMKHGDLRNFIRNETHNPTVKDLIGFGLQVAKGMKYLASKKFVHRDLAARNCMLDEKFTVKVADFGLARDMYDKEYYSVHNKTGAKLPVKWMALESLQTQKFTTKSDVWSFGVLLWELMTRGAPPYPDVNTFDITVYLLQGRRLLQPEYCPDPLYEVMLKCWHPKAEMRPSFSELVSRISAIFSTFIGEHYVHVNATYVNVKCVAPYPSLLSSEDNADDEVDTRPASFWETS

Row | IC50 [2] [nM] | IC50 [3] [nM] | Compound | IC50 [1] [nM]
1 | – | – | 7-[(2,6-dichloro-3-fluorophenyl)methoxymethyl]-2-(1-piperidin-4-yl-1H-pyrazol-4-yl)-5H-pyrrolo[2,3-b]pyrazine [Example 1] | 100 to 500
2 | ≤ 100 | – | COc1ccc(F)c(Cl)c1C(C)c1n[nH]c2ncc(-c3cnn([C@H]4CC[C@H](O)CC4)c3)cc12 (relative stereo) [Example 9, trans-4-(4-{3-[1-(2-Chloro-3-fluoro-6-methoxyphenyl)ethyl]-1H-pyrazolo[3,4-b]pyridin-5-yl}-1H-pyrazol-1-yl)cyclohexanol] | –
3 | 500 to 2000 | > 1000 | C[C@H](c1c(Cl)ccc(F)c1Cl)n1ccc2ncc(-c3cnn(C)c3)cc21 [Example 4, 1-[(1R)-1-(2,6-dichloro-3-fluorophenyl)ethyl]-6-(1-methyl-1H-pyrazol-4-yl)-1H-pyrrolo[3,2-b]pyridine] | –
4 | ≤ 100 | 500 to 1000 | C[C@H](c1c(Cl)ccc(F)c1Cl)n1ccc2ncc(-c3cnn(C4CCNCC4)c3)cc21 [Example 5, 1-[(1R)-1-(2,6-Dichloro-3-fluorophenyl)ethyl]-6-[1-(piperidin-4-yl)-1H-pyrazol-4-yl]-1H-pyrrolo[3,2-b]pyridine] | –
5 | 100 to 500 | 500 to 1000 | C[C@H](c1c(Cl)ccc(F)c1Cl)n1ccc2ncc(-c3cnn(C4CCN(C=O)CC4)c3)cc21 [Example 6, 4-(4-{1-[(1R)-1-(2,6-Dichloro-3-fluorophenyl)ethyl]-1H-pyrrolo[3,2-b]pyridin-6-yl}-1H-pyrazol-1-yl)piperidine-1-carbaldehyde] | –
6 | 100 to 500 | 100 to 500 | C[C@H](c1c(Cl)ccc(F)c1Cl)n1ccc2ncc(-c3cnn([C@H]4CC[C@H](O)CC4)c3)cc21 [Example 7, trans-4-(4-{1-[(1R)-1-(2,6-Dichloro-3-fluorophenyl)ethyl]-1H-pyrrolo[3,2-b]pyridin-6-yl}-1H-pyrazol-1-yl)cyclohexanol] | –
7 | 100 to 500 | 500 to 1000 | C[C@H](c1c(Cl)ccc(F)c1Cl)n1ccc2ncc(-c3cnn(C[C@H](O)CO)c3)cc21 [Example 8, (2S)-3-(4-{1-[(1R)-1-(2,6-Dichloro-3-fluorophenyl)ethyl]-1H-pyrrolo[3,2-b]pyridin-6-yl}-1H-pyrazol-1-yl)propane-1,2-diol] | –
8 | ≤ 100 | 100 to 500 | COc1ccc(F)c(Cl)c1[C@@H](C)c1n[nH]c2ncc(-c3cnn([C@H]4CC[C@H](O)CC4)c3)cc12 [Example 10, trans-4-(4-{3-[(1R)-1-(2-Chloro-3-fluoro-6-methoxyphenyl)ethyl]-1H-pyrazolo[3,4-b]pyridin-5-yl}-1H-pyrazol-1-yl)cyclohexanol] | –
9 | > 2000 | – | COc1ccc(F)c(Cl)c1[C@H](C)c1n[nH]c2ncc(-c3cnn([C@H]4CC[C@H](O)CC4)c3)cc12 [Example 11, trans-4-(4-{3-[(1S)-1-(2-Chloro-3-fluoro-6-methoxyphenyl)ethyl]-1H-pyrazolo[3,4-b]pyridin-5-yl}-1H-pyrazol-1-yl)cyclohexanol] | –
10 | ≤ 100 | – | COc1ccc(F)c(Cl)c1[C@@H](C)c1n[nH]c2ncc(-c3cnn(C4CCNCC4)c3)cc12 [Example 12, 3-[(1R)-1-(2-chloro-3-fluoro-6-methoxyphenyl)ethyl]-5-[1-(piperidin-4-yl)-1H-pyrazol-4-yl]-1H-pyrazolo[3,4-b]pyridine] | –
11 | 100 to 500 | – | COc1ccc(F)c(Cl)c1[C@@H](C)c1n[nH]c2ncc(-c3cnn(C[C@H](O)CO)c3)cc12 [Example 13, (2S)-3-(4-{3-[(1R)-1-(2-chloro-3-fluoro-6-methoxyphenyl)ethyl]-1H-pyrazolo[3,4-b]pyridin-5-yl}-1H-pyrazol-1-yl)propane-1,2-diol] | –
12 | 100 to 500 | – | COc1ccc(F)c(Cl)c1[C@@H](C)c1n[nH]c2ncc(-c3cnn(C)c3)cc12 [Example 14, 3-[(1R)-1-(2-chloro-3-fluoro-6-methoxyphenyl)ethyl]-5-(1-methyl-1H-pyrazol-4-yl)-1H-pyrazolo[3,4-b]pyridine] | –
13 | > 2000 | – | CC(c1c(Cl)ccc(F)c1Cl)c1c[nH]c2nnc(-c3cnn(C)c3)cc12 (stereo not shown) [Example 15, 5-[1-(2,6-Dichloro-3-fluorophenyl)ethyl]-3-(1-methyl-1H-pyrazol-4-yl)-7H-pyrrolo[2,3-c]pyridazine] | –
